For data set [1], the system named is human APOE RNA. Description: Duration of action study in APOE C57BL/6NTac-Apoeem7250 knock-in mice (Example 16). In kind it is in vivo. The conditions noted are these: 300 μg ICV. A digest of the protocol: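 Knock-in mice (2-4 per group) received a single ICV bolus of 300 μg oligonucleotide or PBS. At various timepoints, cortex and spinal cord human APOE RNA was measured by RT-qPCR (RTS3073), normalized to mouse Ppia and expressed as % of PBS control.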

In data set [2] the test system is human APOE RNA. Description: Potency (dose response, ED50) in APOE C57BL/6NTac-Apoeem7250 knock-in mice, 8 weeks (Example 15). In kind it is in vivo. The conditions noted are these: for ED 50 (μg) Cortex / ED 50 (μg) Spinal Cord: single ICV bolus, GraphPad Prism 10. As to the method:
Modified oligonucleotides described above were tested in the APOE C57BL/6NTac-Apoeem7250 knock-in mouse model described above.
APOE C57BL/6NTac-Apoeem7250 knock-in mice were divided into groups of 3-4 mice each. A group of 4 mice received a single ICV bolus with PBS as a negative control.
Eight weeks post treatment, mice were sacrificed, and RNA was extracted from cortical brain tissue and spinal cord for quantitative real-time RT-PCR analysis of RNA expression of […] using human primer probe set RTS3073 (described herein above). APOE RNA levels were normalized to mouse Ppia. Mouse Ppia was amplified using primer probe set m_cyclo24 (described herein above). Results are presented as percent human APOE RNA relative to the amount of APOE RNA in PBS treated animals, (% control). N.C. indicates values that were not calculated.
The half maximal effective dose (ED50) of each modified oligonucleotide was calculated using GraphPad Prism 10 software (GraphPad Software, San Diego, CA).

Data set [3] deals with human APOE RNA. In words: Activity in APOE C57BL/6NTac-Apoeem7250 knock-in mice, single ICV bolus, 16 weeks (Example 12). In kind it is in vivo. The conditions noted are these: single ICV bolus 300 μg, 16 weeks post treatment, normalized to mouse Ppia. A digest of the protocol:
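A single 300 μg intracerebroventricular dose was given, with PBS-treated mice as reference; cortical and spinal cord tissue was taken 16 weeks later. RT-qPCR quantified human APOE RNA, Ppia-normalized, expressed relative to PBS animals (% control).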

Data set [4] has as its system human APOE RNA. In words: Dose-dependent inhibition of human APOE RNA in HepG2 cells, electroporation, 50,000 cells per well, RT-PCR normalized to GAPDH (Example 4, Tables 8-10). In kind it is cell-based. The conditions noted are these: HepG2 cells, electroporation, Table 8. The gist of the method: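 Readout is percent APOE RNA versus untreated controls, measured by RT-PCR (primer probe set RTS3073) and normalized to human GAPDH. Modified oligonucleotides were delivered by electroporation at varying doses into HepG2 cells plated at 50,000 per well.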

Strand notation (5' to 3'): a small letter for the sugar, then the base; units joined by * are phosphorothioate-linked, units joined directly phosphodiester-linked; [ ] holds rarer units or linkages, { } end groups; capitals alone tell only the bases. [ms] = mesyl phosphoramidate linkage; e = 2'-O-(2-methoxyethyl) (MOE); k = constrained ethyl (cEt); [5mC] = 5-methylcytosine; d = 2'-deoxy (DNA)

The values that follow come from patent US20250353873A1, “COMPOUNDS AND METHODS FOR MODULATING APOE EXPRESSION” (Ionis Pharmaceuticals, Inc., priority 2024, published 2025).

By IC50 is commonly meant the concentration that gives 50% inhibition. A low value points to higher potency.

In the case of “TezTeoGeoGksTdsGdzAdzAdzTds^mCdsTdsTdsTdsAdzTksTksAesAesAes^mCe (antisense eT[ms]eTeGkG*dT*dG[ms]dA[ms]dA[ms]dT*d[5mC]*dT*dT*dT*dA[ms]kT*kT*eA*eA*eA*e[5mC]) [Compound No. 1809814]”, the “APOE RNA (% control) Cortex” value in data set [1] (7 days post-dose) is 62 % control; in data set [1] (14 days post-dose), 57 % control; in data set [2] (ICV dose 10 μg) it was 97 % control; in data set [2] (ICV dose 30 μg) it was 85 % control; in data set [2] (ICV dose 100 μg), 72 % control; in data set [2] (ICV dose 300 μg), 47 % control. For the same substance, the “APOE RNA (% control) Cortex” value in data set [2] (ICV dose 700 μg) was determined as 37 % control. For the same substance, the “APOE RNA (% control) Spinal Cord” value in data set [1] (7 days post-dose) was 84 % control; in data set [1] (14 days post-dose), 53 % control; in data set [2] (ICV dose 10 μg), 81 % control; in data set [2] (ICV dose 30 μg), 60 % control; in data set [2] (ICV dose 100 μg), 45 % control; in data set [2] (ICV dose 300 μg), 29 % control. Moreover, the “APOE RNA (% control) Spinal Cord” value in data set [2] (ICV dose 700 μg) is given as 28 % control. For the same substance, the “ED 50 (μg) Cortex” value in data set [2] was 309.5 µg. The “ED 50 (μg) Spinal Cord” value in data set [2] was determined as 78.7 µg.
With “^mCksTksTksGdzGdzTdzGdzAdzAdzTds^mCdsTdsTdsTdsAdsTdsTksAksAdzAk (antisense k[5mC]*kT*kT*dG[ms]dG[ms]dT[ms]dG[ms]dA[ms]dA[ms]dT*d[5mC]*dT*dT*dT*dA*dT*kT*kA*dA[ms]kA) [Compound No. 1785602]”, the “APOE RNA (% control) Cortex” value is 40 % control in data set [1] (7 days post-dose); 30 % control in data set [1] (14 days post-dose); 38 % control in data set [3] (cortex); 95 % control in data set [2] (ICV dose 10 μg); 90 % control in data set [2] (ICV dose 30 μg); 57 % control in data set [2] (ICV dose 100 μg). Also, the “APOE RNA (% control) Cortex” value in data set [2] (ICV dose 300 μg) worked out at 31 % control; in data set [2] (ICV dose 700 μg), 21 % control. For the same substance, the “APOE RNA (% control) Spinal Cord” value in data set [1] (7 days post-dose) stood at 56 % control; in data set [1] (14 days post-dose), 28 % control; in data set [3] (spinal cord), 20 % control; in data set [2] (ICV dose 10 μg), 73 % control; in data set [2] (ICV dose 30 μg), 40 % control; in data set [2] (ICV dose 100 μg), 26 % control. For the same substance, the “APOE RNA (% control) Spinal Cord” value is 20 % control in data set [2] (ICV dose 300 μg) and 22 % control in data set [2] (ICV dose 700 μg). In addition, in data set [4] (24-hour treatment, 5 nM), the “APOE RNA (% UTC) 5 nM” value is on record as 96 % UTC. Moreover, in data set [4] (24-hour treatment, 13 nM), the “APOE RNA (% UTC) 13 nM” value was found to be 109 % UTC. In data set [4] (24-hour treatment, 33 nM), the “APOE RNA (% UTC) 33 nM” value is 83 % UTC. In addition, the “APOE RNA (% UTC) 82 nM” value in data set [4] (24-hour treatment, 82 nM) was 64 % UTC. Besides, the “APOE RNA (% UTC) 205 nM” value in data set [4] (24-hour treatment, 205 nM) is on record as 55 % UTC. Further, the “APOE RNA (% UTC) 512 nM” value in data set [4] (24-hour treatment, 512 nM) is recorded as 27 % UTC. In addition, the “APOE RNA (% UTC) 1,280 nM” value in data set [4] (24-hour treatment, 1,280 nM) is listed as 18 % UTC. For the same substance, the “APOE RNA (% UTC) 3,200 nM” value in data set [4] (24-hour treatment, 3,200 nM) is given as 11 % UTC. In addition, the “APOE RNA (% UTC) 8,000 nM” value in data set [4] (24-hour treatment, 8,000 nM) came to 8 % UTC. The “APOE RNA (% UTC) 20,000 nM” value in data set [4] (24-hour treatment, 20,000 nM) was determined as 4 % UTC. The IC50 in data set [4] (reduction of human APOE RNA, 24-hour treatment) was determined as 220 nM. The “ED 50 (μg) Cortex” value in data set [2] was determined as 153.2 µg. Further, the “ED 50 (μg) Spinal Cord” value in data set [2] was determined as 26.9 µg.
As to “Aks^mCeoTeoTesGesGksTdsGdzAdzAdzTds^mCdsTdsTdsTdsAdzTksTksAesAe (kA*e[5mC]eTeT*eG*kG*dT*dG[ms]dA[ms]dA[ms]dT*d[5mC]*dT*dT*dT*dA[ms]kT*kT*eA*eA) [Compound No. 1809635]”, the “APOE RNA (% control) Cortex” value in data set [1] (7 days post-dose) is reported as 40 % control; in data set [1] (14 days post-dose), 30 % control; in data set [2] (ICV dose 10 μg) it was 95 % control; in data set [2] (ICV dose 30 μg), 84 % control; in data set [2] (ICV dose 100 μg) it was 62 % control; in data set [2] (ICV dose 300 μg), 30 % control. Besides, the “APOE RNA (% control) Cortex” value in data set [2] (ICV dose 700 μg) was 16 % control. Also, the “APOE RNA (% control) Spinal Cord” value in data set [1] (7 days post-dose) is 44 % control; in data set [1] (14 days post-dose) it was 27 % control; in data set [2] (ICV dose 10 μg), 51 % control; in data set [2] (ICV dose 30 μg), 27 % control; in data set [2] (ICV dose 100 μg) it was 13 % control; in data set [2] (ICV dose 300 μg) it was 13 % control. For the same substance, the “APOE RNA (% control) Spinal Cord” value in data set [2] (ICV dose 700 μg) worked out at 18 % control. Moreover, in data set [2], the “ED 50 (μg) Cortex” value was 146.7 µg.
